According to patent US20240116985A1, “STAPLED PEPTIDES AND METHODS THEREOF” (priority 2020, published 2024):
Read-outs that look alike come from different tables or passages of the source.

Tests used:
[1] = target: T1, full-length beta-Catenin (Uniprot ID P35222) (Homo sapiens, UniProt P35222); test: Fluorescence polarization IC50 (beta-catenin / 5FAM-TCF4 10-53 competition); assay type: binding; settings: fluorescence polarization; read-out: beta-Catenin FP IC50
T1 construct: 10 nM full-length beta-Catenin (Uniprot ID P35222)
T1 sequence (P35222 1-781): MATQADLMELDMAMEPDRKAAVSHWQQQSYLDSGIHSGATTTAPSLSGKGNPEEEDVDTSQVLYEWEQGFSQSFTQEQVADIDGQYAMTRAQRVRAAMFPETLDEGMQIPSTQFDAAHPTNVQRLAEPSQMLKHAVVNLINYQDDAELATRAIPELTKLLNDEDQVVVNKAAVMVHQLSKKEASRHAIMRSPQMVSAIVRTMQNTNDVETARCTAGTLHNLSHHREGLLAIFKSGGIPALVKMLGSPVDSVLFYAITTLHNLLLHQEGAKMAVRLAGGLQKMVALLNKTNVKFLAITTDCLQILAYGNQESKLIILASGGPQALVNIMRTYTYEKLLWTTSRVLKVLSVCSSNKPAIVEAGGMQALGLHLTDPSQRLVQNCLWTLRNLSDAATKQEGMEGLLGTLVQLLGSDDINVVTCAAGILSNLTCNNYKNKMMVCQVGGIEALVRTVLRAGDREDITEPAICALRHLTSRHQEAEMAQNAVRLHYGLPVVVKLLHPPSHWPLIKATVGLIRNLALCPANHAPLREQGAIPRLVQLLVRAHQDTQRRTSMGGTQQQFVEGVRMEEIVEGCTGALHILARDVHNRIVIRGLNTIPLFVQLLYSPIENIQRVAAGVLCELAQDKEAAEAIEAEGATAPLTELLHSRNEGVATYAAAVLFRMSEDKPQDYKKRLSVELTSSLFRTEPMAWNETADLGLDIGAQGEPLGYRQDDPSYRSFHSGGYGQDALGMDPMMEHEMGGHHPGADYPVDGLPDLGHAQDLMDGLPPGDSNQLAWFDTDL

[2] = target: T2, beta-catenin/TCF4 engagement (Homo sapiens, UniProt P35222); test: Nano-BRET target engagement assay (B-cat-Halo & TCF4-Luc in HEK293 cells); assay type: cell-based; settings: read-out: NanoBRET Abs IC50
T2 construct: expressed in transfected cells; host or cells: HEK293
T2 sequence (P35222 1-781): T1 sequence (P35222 1-781)

SMILES	IC50 [1] [nM]	IC50 [2] [nM]	IC50 ([2]; absolute IC50) [nM]
CC(=O)N1CCC[C@]12CC=CCCCC1(CCCC=CCCCOC(=O)N3CC[C@@](C(=O)N[C@@H](Cc4ccsc4)C(=O)N[C@@H](Cc4csc5ccccc45)C(=O)N[C@H](C(N)=O)C(C)C)(C3)NC(=O)[C@H](CC(C)C)NC(=O)[C@H](Cc3ccccc3)NC(=O)[C@H](C)NC(=O)[C@H](CC(=O)N(C)C)NC(=O)[C@H](Cc3cccc(C(=O)O)c3)NC(=O)[C@H](CC(=O)O)NC1=O)NC(=O)[C@H](CC(C)(C)C)NC(=O)[C@H](CC(=O)O)NC2=O (stereo partly drawn) [I-2191, Ac-PL3-Asp-Npg-B5-Asp-3COOHF-Me2Asn-Ala-Phe-Leu-PyrS2-3Thi-BztA-Val-NH2]	16	29500	
CC(=O)N1CCC[C@]12CC=CCCCC1(CCCC=CCCCOC(=O)N3CC[C@@](C(=O)N[C@@H](Cc4ccsc4)C(=O)N[C@@H](Cc4csc5ccccc45)C(=O)N[C@@H](CCC(N)=O)C(N)=O)(C3)NC(=O)[C@H](CC(N)=O)NC(=O)[C@H](Cc3ccccc3)NC(=O)[C@H](C)NC(=O)[C@H](C)NC(=O)[C@H](CCCNC(=N)N)NC(=O)[C@H](CC(=O)O)NC1=O)NC(=O)[C@H](CC(C)(C)C)NC(=O)[C@H](CC(=O)O)NC2=O (stereo partly drawn) [I-1890, Ac-PL3-Asp-Npg-B5-Asp-Arg-Ala-Ala-Phe-Asn-PyrS2-3Thi-BztA-Gln-NH2]	31	> 20000	
CC(=O)N1CCC[C@]12CC=CCCCC1(CCCC=CCCCOC(=O)N3CC[C@@](C(=O)N[C@@H](Cc4ccsc4)C(=O)N[C@@H](Cc4csc5ccccc45)C(=O)N[C@H](C(N)=O)C(C)C)(C3)NC(=O)[C@H](CC(C)C)NC(=O)[C@H](Cc3ccccc3)NC(=O)[C@H](C)NC(=O)[C@H](CCCCNC(C)C)NC(=O)[C@H](CN(CC(=O)O)CC(F)(F)F)NC(=O)[C@H](CC(=O)O)NC1=O)NC(=O)[C@H](CC(C)(C)C)NC(=O)[C@H](CC(=O)O)NC2=O (stereo partly drawn) [I-1763, Ac-PL3-Asp-Npg-B5-Asp-TfeGA-iPrLys-Ala-Phe-Leu-PyrS2-3Thi-BztA-Val-NH2]	52		> 20000
CC(=O)N1CCC[C@]12CC=CCCCC1(CCCC=CCCCOC(=O)N3CC[C@@](C(=O)N[C@@H](Cc4ccsc4)C(=O)N[C@@H](Cc4csc5ccccc45)C(=O)N[C@@H](CCC(N)=O)C(N)=O)(C3)NC(=O)[C@H](CC(C)C)NC(=O)[C@H](Cc3ccccc3)NC(=O)[C@H](C)NC(=O)[C@H](C)NC(=O)[C@H](CCN(CC(=O)O)C(=O)Cc3c(F)c(F)c(F)c(F)c3F)NC(=O)[C@H](CC(=O)O)NC1=O)NC(=O)[C@H](CC(C)(C)C)NC(=O)[C@H](CC(=O)O)NC2=O (stereo partly drawn) [I-2251, Ac-PL3-Asp-Npg-B5-Asp-[PfPhAc]GAbu-Ala-Ala-Phe-Leu-PyrS2-3Thi-BztA-Gln-NH2]	15		6400

Next, values leading:

IC50 [1] [nM]	IC50 [2] [nM]	IC50 ([2]; absolute IC50) [nM]	SMILES
83	33400		CCCC[C@@H]1NC(=O)[C@H](Cc2cccc(C(=O)O)c2)NC(=O)[C@H](CC(=O)O)NC(=O)C2(CCCC=CCCCOC(=O)N3CC[C@@](C(=O)N[C@@H](Cc4ccsc4)C(=O)N[C@@H](Cc4csc5ccccc45)C(=O)N[C@H](C(N)=O)C(C)C)(C3)NC(=O)[C@H](CC(C)C)NC(=O)[C@H](Cc3ccccc3)NC(=O)[C@H](C)NC1=O)CCCC=CC[C@]1(CCCN1C(C)=O)C(=O)N[C@@H](CC(=O)O)C(=O)N[C@@H](CC(C)(C)C)C(=O)N2 (stereo partly drawn) [I-2189, Ac-PL3-Asp-Npg-B5-Asp-3COOHF-nLeu-Ala-Phe-Leu-PyrS2-3Thi-BztA-Val-NH2]
85		7900	CC(=O)N1CCC[C@]12CC=CCCCC1(CCCC=CCCCOC(=O)N3CC[C@@](C(=O)N[C@@H](Cc4ccsc4)C(=O)N[C@@H](Cc4csc5ccccc45)C(=O)N[C@@H](CCC(N)=O)C(N)=O)(C3)NC(=O)[C@H](CC(C)C)NC(=O)[C@H](Cc3ccccc3)NC(=O)[C@H](C)NC(=O)[C@H](C)NC(=O)[C@H](CCN(CC(=O)O)Cc3c(F)c(F)c(F)c(F)c3F)NC(=O)[C@H](CC(=O)O)NC1=O)NC(=O)[C@H](CC(C)(C)C)NC(=O)[C@H](CC(=O)O)NC2=O (stereo partly drawn) [I-1838, Ac-PL3-Asp-Npg-B5-Asp-[Pfbn]GAbu-Ala-Ala-Phe-Leu-PyrS2-3Thi-BztA-Gln-NH2]
22	3900		CC(=O)N1CCC[C@]12CC=CCCCC1(CCCC=CCCCOC(=O)N3CC[C@@](C(=O)N[C@@H](Cc4ccccc4Cl)C(=O)N[C@@H](Cc4csc5ccccc45)C(=O)N[C@H](C)C(N)=O)(C3)NC(=O)[C@H](CO)NC(=O)[C@H](Cc3ccccc3)NC(=O)[C@H](C)NC(=O)[C@H](C)NC(=O)[C@H](Cc3cccc(C(=O)O)c3)NC(=O)[C@H](CC(=O)O)NC1=O)NC(=O)[C@H](CC(C)(C)C)NC(=O)[C@H](CC(=O)O)NC2=O (stereo partly drawn) [I-2030, Ac-PL3-Asp-Npg-B5-Asp-3COOHF-Ala-Ala-Phe-Ser-PyrS2-2C1F-BztA-dAla-NH2]
76		15100	CC(=O)N1CCC[C@]12CC=CCCCC1(CCCC=CCCCOC(=O)N3CC[C@@](C(=O)N[C@@H](Cc4ccccc4C(F)(F)F)C(=O)N[C@@H](Cc4csc5ccccc45)C(=O)N[C@@H](CCCN4CCC(F)(F)CC4)C(N)=O)(C3)NC(=O)[C@H](CC(C)C)NC(=O)[C@H](Cc3ccccc3)NC(=O)[C@H](C)NC(=O)[C@H](C)NC(=O)[C@H](Cc3cccc(C(=O)O)c3)NC(=O)[C@H](CC(=O)O)NC1=O)NC(=O)[C@H](CC(C)(C)C)NC(=O)[C@H](CC(=O)O)NC2=O (stereo partly drawn) [I-1608, Ac-PL3-Asp-Npg-B5-Asp-3COOHF-Ala-Ala-Phe-Leu-PyrS2-2F3MeF-BztA-F2PipNva-NH2]
18.5		9700	CC(=O)N1CCC[C@]12CC=CCCCC1(CCCC=CCCCOC(=O)N3CC[C@@](C(=O)N[C@@H](Cc4ccccc4Cl)C(=O)N[C@@H](Cc4csc5ccccc45)C(=O)N[C@@H](CCC(N)=O)C(=O)N4CCC[C@H]4CO)(C3)NC(=O)[C@H](CC(C)C)NC(=O)[C@H](Cc3ccccc3)NC(=O)[C@H](C)NC(=O)[C@H](C)NC(=O)[C@H](Cc3cccc(C(=O)O)c3)NC(=O)[C@H](CC(=O)O)NC1=O)NC(=O)[C@H](CC(C)(C)C)NC(=O)[C@H](CC(=O)O)NC2=O (stereo partly drawn) [I-1675, Ac-PL3-Asp-Npg-B5-Asp-3COOHF-Ala-Ala-Phe-Leu-PyrS2-2C1F-BztA-Gln-Proo1]
234	> 20000		CC(C)C[C@H](NC(=O)[C@]12CCN(C1)C(=O)OCCCC=CCCCC1(CCCC=CCCC(=O)N3CCC[C@@]3(C)C(=O)N[C@@H](CC(=O)O)C(=O)N1)C(=O)N[C@@H](C)C(=O)N[C@@H](CC(=O)O)C(=O)N[C@@H](CC(=O)O)C(=O)N[C@@H](C)C(=O)N[C@@H](C)C(=O)N[C@@H](Cc1ccccc1)C(=O)N2)C(=O)N[C@@H](Cc1ccsc1)C(=O)N[C@@H](Cc1csc2ccccc12)C(=O)N[C@@H](CCC(N)=O)C(N)=O (stereo partly drawn) [I-2599, 4pentenyl-MePro-Asp-B5-Ala-Asp-Asp-Ala-Ala-Phe-PyrS2-Leu-3Thi-BztA-Gln-NH2]
13		> 20000	CCN(CC(=O)O)C[C@@H]1NC(=O)[C@H](CC(=O)O)NC(=O)C2(CCCC=CCCCOC(=O)N3CC[C@@](C(=O)N[C@@H](Cc4ccccc4Cl)C(=O)N[C@@H](Cc4csc5ccccc45)C(=O)N[C@@H](CCC(N)=O)C(N)=O)(C3)NC(=O)[C@H](CC(N)=O)NC(=O)[C@H](Cc3ccccc3)NC(=O)[C@H](C)NC(=O)[C@H](C)NC1=O)CCCC=CC[C@]1(CCCN1C(C)=O)C(=O)N[C@@H](CC(=O)O)C(=O)N[C@@H](CC(C)(C)C)C(=O)N2 (stereo partly drawn) [I-1622, Ac-PL3-Asp-Npg-B5-Asp-[Et]GA-Ala-Ala-Phe-Asn-PyrS2-2C1F-BztA-Gln-NH2]
